Source: PMC5094563 (Chemmedchem, 2016)
Like-named read-outs stand apart in the source and are kept apart here.

Columns and labels:
p110α = p110α (Homo sapiens, UniProt P42336); test: Biochemical IC50 assay
p110β = p110β (Homo sapiens, UniProt P42338); test: Biochemical IC50 assay
P‐gp [1] = settings: cited from earlier work
[2] = male CD1 mice; cited from earlier work
BCRP [3] = settings: cited from earlier work
P‐gp [4] = settings: read-out: P‐gp mediated transport inhibition IC50, cited from earlier work
[5] = male humans; cited from earlier work
[6] = all species investigated including mouse, rat, dog and monkey; cited from earlier work
Caco2 = settings: 10 μM, absence of a P‐gp inhibitor; cited from earlier work
[7] = male Wistar rats; cited from earlier work
[8] = female Beagle dogs; cited from earlier work
BCRP [9] = settings: read-out: BCRP mediated transport inhibition IC50; for topotecan; cited from earlier work

Chain of p110β (P42338 109-1070): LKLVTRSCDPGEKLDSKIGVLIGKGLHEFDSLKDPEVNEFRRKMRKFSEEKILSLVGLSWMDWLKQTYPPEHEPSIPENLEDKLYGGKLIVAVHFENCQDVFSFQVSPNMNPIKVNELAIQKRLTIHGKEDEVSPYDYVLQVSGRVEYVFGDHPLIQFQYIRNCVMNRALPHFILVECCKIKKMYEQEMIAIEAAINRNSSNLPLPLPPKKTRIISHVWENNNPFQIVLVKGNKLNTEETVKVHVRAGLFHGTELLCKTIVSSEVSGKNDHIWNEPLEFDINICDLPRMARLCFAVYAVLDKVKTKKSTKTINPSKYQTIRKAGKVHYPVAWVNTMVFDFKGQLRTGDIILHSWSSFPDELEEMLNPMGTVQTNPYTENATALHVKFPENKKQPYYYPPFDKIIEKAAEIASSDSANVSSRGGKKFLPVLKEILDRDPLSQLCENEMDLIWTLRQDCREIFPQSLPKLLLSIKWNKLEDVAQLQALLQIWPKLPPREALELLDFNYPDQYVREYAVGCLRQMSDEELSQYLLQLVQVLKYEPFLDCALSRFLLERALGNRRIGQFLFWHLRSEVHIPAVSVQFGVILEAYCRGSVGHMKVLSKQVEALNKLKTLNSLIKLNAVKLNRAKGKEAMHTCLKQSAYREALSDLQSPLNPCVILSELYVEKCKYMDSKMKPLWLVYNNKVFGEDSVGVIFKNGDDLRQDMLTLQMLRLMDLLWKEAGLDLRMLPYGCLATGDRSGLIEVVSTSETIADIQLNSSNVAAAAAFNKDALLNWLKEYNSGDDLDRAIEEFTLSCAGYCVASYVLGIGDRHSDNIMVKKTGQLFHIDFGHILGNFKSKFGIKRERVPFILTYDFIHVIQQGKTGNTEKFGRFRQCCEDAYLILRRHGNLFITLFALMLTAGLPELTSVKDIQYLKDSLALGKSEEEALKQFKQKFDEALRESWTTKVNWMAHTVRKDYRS
Chain of p110α (P42336 109-1068): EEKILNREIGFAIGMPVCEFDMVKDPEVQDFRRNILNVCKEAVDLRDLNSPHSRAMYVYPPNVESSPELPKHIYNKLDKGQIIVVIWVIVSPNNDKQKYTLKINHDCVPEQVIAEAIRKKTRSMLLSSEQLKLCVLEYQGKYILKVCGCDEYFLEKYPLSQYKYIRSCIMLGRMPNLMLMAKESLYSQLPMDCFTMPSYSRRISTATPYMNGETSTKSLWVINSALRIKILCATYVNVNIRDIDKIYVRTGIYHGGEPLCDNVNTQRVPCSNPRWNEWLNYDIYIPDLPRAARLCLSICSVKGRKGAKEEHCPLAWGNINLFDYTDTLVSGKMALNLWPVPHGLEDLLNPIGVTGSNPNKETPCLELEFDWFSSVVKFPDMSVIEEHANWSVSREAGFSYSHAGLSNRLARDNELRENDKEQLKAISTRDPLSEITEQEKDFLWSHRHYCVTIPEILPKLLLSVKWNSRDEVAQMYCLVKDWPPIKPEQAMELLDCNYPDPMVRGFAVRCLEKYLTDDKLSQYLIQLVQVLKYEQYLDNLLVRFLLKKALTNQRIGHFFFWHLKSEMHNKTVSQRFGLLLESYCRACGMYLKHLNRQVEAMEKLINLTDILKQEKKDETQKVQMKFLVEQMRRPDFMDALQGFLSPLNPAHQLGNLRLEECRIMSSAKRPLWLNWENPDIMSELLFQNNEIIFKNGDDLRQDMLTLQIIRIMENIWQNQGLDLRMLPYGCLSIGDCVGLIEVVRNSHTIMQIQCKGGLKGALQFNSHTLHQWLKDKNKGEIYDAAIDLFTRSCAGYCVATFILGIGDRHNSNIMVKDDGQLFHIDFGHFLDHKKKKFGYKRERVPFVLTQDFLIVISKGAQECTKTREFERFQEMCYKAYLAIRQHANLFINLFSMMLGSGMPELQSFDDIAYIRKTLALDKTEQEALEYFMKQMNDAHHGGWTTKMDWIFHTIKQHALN

SMILES | IC50 (p110α) [nM] | IC50 (p110β) [nM] | also measured
CCOc1ccc2c(c1OC)N=C(NC(=O)c1cccnc1)N1CCN=C21 [Compd 32 b, N ‐(8‐Ethoxy‐7‐methoxy‐2,3‐dihydroimidazo[1,2‐c]quinazolin‐5‐yl)nicotinamide] | 3.6 | 76.1 | –
COc1c(OCCCN2CCOCC2)ccc2c1N=C(NC(=O)c1cnc(N)nc1C)N1CCN=C21 [Compd 39 j, 2‐Amino‐N‐{7‐methoxy‐8‐[3‐(morpholin‐4‐yl)propoxy]‐2,3‐dihydroimidazo[1,2‐c]quinazolin‐5‐yl}‐4‐methylpyrimidine‐5‐carboxamide] | 0.4 | 1 | –
COc1c(OCCCN2CCOCC2)ccc2c1N=C(NC(=O)c1ccncc1)N1CCN=C21 [Compd 39 c, N ‐{7‐Methoxy‐8‐[3‐(morpholin‐4‐yl)propoxy]‐2,3‐dihydroimidazo[1,2‐c]quinazolin‐5‐yl}isonicotinamide] | – | 63.7 | –
COc1c(OCCCN2CCOCC2)ccc2c1N=C(NC(=O)c1cnc(N)nc1)N1CCN=C21 [Compd 39 i, 2‐Amino‐N‐{7‐methoxy‐8‐[3‐(morpholin‐4‐yl)propoxy]‐2,3‐dihydroimidazo[1,2‐c]quinazolin‐5‐yl}pyrimidine‐5‐carboxamide] | – | – | substrate of efflux transporter P‐gp (P‐gp [1]): substrate; plasma‐free fraction [2]: 27.6%; substrate of efflux transporter BCRP (BCRP [3]): substrate; IC50 (P‐gp [4]; for digoxin): 7000 nM; IC50 (P‐gp [4]; for dipyridamole): 7600 nM; plasma‐free fraction [5]: 15.8%; volume of distribution (V ss) [6]: 7 to 32 L/kg; Caco2 P app apical (A) to basal (B) (Caco2): 5.69 ± 0.291 ×10⁻⁶ cm/s; plasma‐free fraction [7]: 42.5%; plasma‐free fraction [8]: 42.4%; IC50 (BCRP [9]): 11500 nM
C=CCOc1c(OCCCN2CCOCC2)ccc2c1N=C(NC(=O)c1cccnc1)N1CCN=C21 [Compd 34 b, N ‐{7‐(Allyloxy)‐8‐[3‐(morpholin‐4‐yl)propoxy]‐2,3‐dihydroimidazo[1,2‐c]quinazolin‐5‐yl}nicotinamide] | – | 22.6 | –
O=C(NC1=Nc2c(ccc(OCCCN3CCOCC3)c2O)C2=NCCN12)c1cccnc1 [Compd 33, N ‐{7‐Hydroxy‐8‐[3‐(morpholin‐4‐yl)propoxy]‐2,3‐dihydroimidazo[1,2‐c]quinazolin‐5‐yl}nicotinamide] | – | 55.6 | –
CCCOc1c(OCCCN2CCOCC2)ccc2c1N=C(NC(=O)c1cccnc1)N1CCN=C21 [Compd 34 a, N ‐{8‐[3‐(Morpholin‐4‐yl)propoxy]‐7‐propoxy‐2,3‐dihydroimidazo[1,2‐c]quinazolin‐5‐yl}nicotinamide] | – | 7.8 | –
CC(C)COc1c(OCCCN2CCOCC2)ccc2c1N=C(NC(=O)c1cccnc1)N1CCN=C21 [Compd 34 c, N ‐{7‐Isobutoxy‐8‐[3‐(morpholin‐4‐yl)propoxy]‐2,3‐dihydroimidazo[1,2‐c]quinazolin‐5‐yl}nicotinamide] | 10.2 | 29.1 | –
O=C(NC1=Nc2c(ccc(OCCCN3CCOCC3)c2OCC2CCOCC2)C2=NCCN12)c1cccnc1 [Compd 34 e, N ‐{8‐[3‐(Morpholin‐4‐yl)propoxy]‐7‐[(tetrahydro‐2H‐pyran‐4‐yl)methoxy]‐2,3‐dihydroimidazo[1,2‐c]quinazolin‐5‐yl}nicotinamide] | 2.1 | 18.2 | –
COc1c(OCCCN2CCOCC2)ccc2c1N=C(NC(=O)c1sc(C)nc1C)N1CCN=C21 [Compd 39 b, N ‐{7‐Methoxy‐8‐[3‐(morpholin‐4‐yl)propoxy]‐2,3‐dihydroimidazo[1,2‐c]quinazolin‐5‐yl}‐2,4‐dimethyl‐1,3‐thiazole‐5‐carboxamide] | 1.6 | 7.8 | –
COc1c(OCCCN2CCOCC2)ccc2c1N=C(NC(=O)c1cnccn1)N1CCN=C21 [Compd 39 g, N ‐{7‐Methoxy‐8‐[3‐(morpholin‐4‐yl)propoxy]‐2,3‐dihydroimidazo[1,2‐c]quinazolin‐5‐yl}pyrazine‐2‐carboxamide] | – | 351 | –
COc1c(OCCCN2CCOCC2)ccc2c1N=C(NC(=O)c1ccc(N(C)C)nc1)N1CCN=C21 [Compd 39 f, 6‐(Dimethylamino)‐N‐{7‐methoxy‐8‐[3‐(morpholin‐4‐yl)propoxy]‐2,3‐dihydroimidazo[1,2‐c]quinazolin‐5‐yl}nicotinamide] | 2.9 | 58.7 | –
COc1c(O)ccc2c1N=C(NC(=O)c1cccnc1)N1CCN=C21 [Compd 31, N ‐(8‐Hydroxy‐7‐methoxy‐2,3‐dihydroimidazo[1,2‐c]quinazolin‐5‐yl)nicotinamide] | 8.7 | 210 | –
O=C(NC1=Nc2c(ccc(OCCCN3CCOCC3)c2OCC2CCCCC2)C2=NCCN12)c1cccnc1 [Compd 34 d, N ‐{7‐(Cyclohexylmethoxy)‐8‐[3‐(morpholin‐4‐yl)propoxy]‐2,3‐dihydroimidazo[1,2‐c]quinazolin‐5‐yl}nicotinamide] | – | 88.5 | –
COc1c(OCC(C)C)ccc2c1N=C(NC(=O)c1cccnc1)N1CCN=C21 [Compd 32 c, N ‐(8‐Isobutoxy‐7‐methoxy‐2,3‐dihydroimidazo[1,2‐c]quinazolin‐5‐yl)nicotinamide] | 8 | 226 | –
COc1c(OCCCCN2CCOCC2)ccc2c1N=C(NC(=O)c1cccnc1)N1CCN=C21 [Compd 32 i, N ‐{7‐Methoxy‐8‐[4‐(morpholin‐4‐yl)butoxy]‐2,3‐dihydroimidazo[1,2‐c]quinazolin‐5‐yl}nicotinamide] | – | 88.1 | –

More lines, in order of falling IC50 (p110β), values ahead:

IC50 (p110α) [nM] | IC50 (p110β) [nM] | SMILES | also measured
6.1 | 1510 | COc1c(OCc2ccccc2)ccc2c1N=C(NC(=O)c1cccnc1)N1CCN=C21 [Compd 30, N ‐[8‐(Benzyloxy)‐7‐methoxy‐2,3‐dihydroimidazo[1,2‐c]quinazolin‐5‐yl]nicotinamide] | –
20.9 | 668 | COc1c(OCCCN2CCOCC2)ccc2c1N=C(NC(=O)c1ccc3c(c1)OCO3)N1CCN=C21 [Compd 39 a, N ‐{7‐Methoxy‐8‐[3‐(morpholin‐4‐yl)propoxy]‐2,3‐dihydroimidazo[1,2‐c]quinazolin‐5‐yl}‐1,3‐benzodioxole‐5‐carboxamide] | –
132 | 286 | COc1c(OCCCN2CCOCC2)ccc2c1N=C(NC(=O)c1cncnc1)N1CCN=C21 [Compd 39 h, N ‐{7‐Methoxy‐8‐[3‐(morpholin‐4‐yl)propoxy]‐2,3‐dihydroimidazo[1,2‐c]quinazolin‐5‐yl}pyrimidine‐5‐carboxamide] | –
1.8 | 20.8 | COc1c(OCCCN2CCOCC2)ccc2c1N=C(NC(=O)c1cccnc1)N1CCN=C21 [Compd 32 g, N ‐{7‐Methoxy‐8‐[3‐(morpholin‐4‐yl)propoxy]‐2,3‐dihydroimidazo[1,2‐c]quinazolin‐5‐yl}nicotinamide] | –
– | 19.3 | O=C(NC1=Nc2c(ccc(OCCCN3CCOCC3)c2OCc2ccncc2)C2=NCCN12)c1cccnc1 [Compd 34 f, N ‐{8‐[3‐(Morpholin‐4‐yl)propoxy]‐7‐[(pyridin‐4‐yl)methoxy]‐2,3‐dihydroimidazo[1,2‐c]quinazolin‐5‐yl}nicotinamide] | –
2.9 | 18.3 | COc1c(OCCCN2CCCCC2)ccc2c1N=C(NC(=O)c1cccnc1)N1CCN=C21 [Compd 32 f, N ‐{7‐Methoxy‐8‐[3‐(piperidin‐1‐yl)propoxy]‐2,3‐dihydroimidazo[1,2‐c]quinazolin‐5‐yl}nicotinamide] | –
3.6 | 18 | COc1c(OCCCN(C)C)ccc2c1N=C(NC(=O)c1cccnc1)N1CCN=C21 [Compd 32 e, N ‐{8‐[3‐(Dimethylamino)propoxy]‐7‐methoxy‐2,3‐dihydroimidazo[1,2‐c]quinazolin‐5‐yl}nicotinamide] | –
6.2 | 16.6 | COc1c(OCCCN2CCOCC2)ccc2c1N=C(NC(=O)c1ccnc(N)c1)N1CCN=C21 [Compd 39 d, 2‐Amino‐N‐{7‐methoxy‐8‐[3‐(morpholin‐4‐yl)propoxy]‐2,3‐dihydroimidazo[1,2‐c]quinazolin‐5‐yl}isonicotinamide] | –
0.9 | 11.2 | COc1c(OCCN2CCOCC2)ccc2c1N=C(NC(=O)c1cccnc1)N1CCN=C21 [Compd 32 h, N ‐{7‐Methoxy‐8‐[2‐(morpholin‐4‐yl)ethoxy]‐2,3‐dihydroimidazo[1,2‐c]quinazolin‐5‐yl}nicotinamide] | –
0.6 | 7.9 | COc1c(OCCCN2CCOCC2)ccc2c1N=C(NC(=O)c1ccc(N)nc1)N1CCN=C21 [Compd 39 e, 6‐Amino‐N‐{7‐methoxy‐8‐[3‐(morpholin‐4‐yl)propoxy]‐2,3‐dihydroimidazo[1,2‐c]quinazolin‐5‐yl}nicotinamide] | –
